From US20250027130A1, “Nucleic Acid Synthesis and Sequencing Using Tethered Nucleoside Triphosphates” (The Regents of the University of California, priority 2022, published 2025)

Columns and labels:
[1] = system: DH10B cells co-expressing MaFRSA; assay: In vivo incorporation at position 200 of sfGFP, MaFRSA (intact mass, GluC LC-MS/MS); type: cell-based, E. coli; conditions: samples iv-v, DH10B, TB, 1 mM substrate
[2] = system: DH10B ΔaspC ΔtyrB harboring pMega-MaFRSA; type: cell-based, E. coli; conditions: samples viii-ix, TB, 1 mM substrate

Compound | sfGFP containing variant 1 at position 200 [1] [%] | sfGFP containing variant 2 at position 200 [1] [%] | sfGFP containing variant 21 at position 200 [1] [%] | sfGFP containing variant A at position 200 [1] [%] | sfGFP containing variant F at position 200 [1] [%] | sfGFP containing variant K at position 200 [1] [%] | sfGFP containing variant Q at position 200 [1] [%] | sfGFP containing variant W at position 200 [1] [%] | sfGFP containing variant Y at position 200 [1] [%] | sfGFP containing variant 1 at position 200 [2] [%] | sfGFP containing variant 2 at position 200 [2] [%] | sfGFP containing variant 21 at position 200 [2] [%] | sfGFP containing variant A at position 200 [2] [%] | sfGFP containing variant F at position 200 [2] [%] | sfGFP containing variant K at position 200 [2] [%] | sfGFP containing variant Q at position 200 [2] [%] | sfGFP containing variant W at position 200 [2] [%] | sfGFP containing variant Y at position 200 [2] [%] | sfGFP containing variant 20 at position 200 [1] [%] | sfGFP containing variant 20 at position 200 [2] [%]
N[C@@H](Cc1cccc(C(F)(F)F)c1)C(=O)O [Substrate 20] | 0.00 | 0.00 | 0.32 | 0.03 | 0.34 | 0.02 | 0.11 | 0.17 | 0.28 | 0.00 | 0.00 | 0.65 | 0.02 | 0.34 | 0.01 | 0.07 | 0.12 | 0.60 | – | –
N[C@@H](Cc1cccc(C(F)(F)F)c1)C(=O)O [Sample 20] | – | – | – | – | – | – | – | – | – | – | – | – | – | – | – | – | – | – | 98.73 | 98.19
